Laboratory results taken from article PMC5128878 (Scientific Reports, 2016).
pIC50: −log10 of the molar value. Values joined by “and” are separate entries in the source; they are usually repeats but may differ in a detail not shown here. Equal entries are not always repeated. Where two headings read alike, the source gives them in different places.

Tests used:
α7 nAChR = molecular target: T1, α7 nAChR (Homo sapiens, UniProt P36544); test: Two-electrode voltage clamp of ACh currents, α7 nAChRs (with RIC-3) expressed in Xenopus oocytes; format: cell-based; conditions: for pIC50: IC50 (95% CI), ACh 100 μM
T1 construct: expressed in transfected cells; host or cells: Xenopus laevis oocytes injected with cRNA
Procedure: (§1) Oocytes isolated from mature female Xenopus laevis were supplied by the European Xenopus Resource Centre, University of Portsmouth, UK. Oocytes were treated with collagenase (0.5 mg/ml, Sigma type 1 A) in Ca^2+-free solution (96 mM NaCl, 2 mM KCl, 1 mM MgCl2, 5 mM HEPES, 2.5 mM Na-pyruvate, 100 U/mL penicillin, 0.1 mg/mL streptomycin, pH 7.5) with shaking at 19 °C to defolliculate and remove the connective tissue surrounding the cells. After separation, oocytes were washed 7 times with modified Barth’s solution (96 mM NaCl, 2 mM KCl, 1.8 mM CaCl2, 1 mM MgCl2, 5 mM HEPES, 2.5 mM Na-pyruvate, 0.5 mM theophylline, 50 μg/mL gentamicin, pH 7.5) and kept at 19 °C in the same solution.
(§2) Healthy oocytes were injected with cRNA using a Nano-liter Injector (World Precision Instruments Inc, USA). Mixtures of nAChR subunit cRNAs were injected as follows; for heteromeric rat neuronal receptors a 1:1 ratio of α:β at 200 ng/μL; for mouse embryonic muscle a 1:1:1:1 ratio of α:β:γ:δ at 25 ng/μL; human α7 at 100 ng/μL was mixed with RIC-3 at 30 ng/μL. Each oocyte was injected with 50 nL of RNA solution. Injected oocytes were saved in Barth’s solution at 19 °C for two to three days for expression of the target protein. During this time oocytes were regularly checked to remove unhealthy ones.
(§3) Electrophysiological recordings were taken from nAChR-expressing oocytes by two-electrode voltage clamp using a Geneclamp 500 voltage clamp amplifier (Axon instruments, USA). An oocyte was placed in the perfusion chamber using a plastic Pasteur pipette and the bath was perfused (~5 mL/min) with fresh Frog Ringer solution (96 mM NaCl, 2 mM KCl, 1.8 mM CaCl2 and 5 mM HEPES, pH 7.5). Microelectrodes were pulled from borosilicate glass capillaries (Harvard GC150TF-10) using a programmable micropipette puller (Sutter P97, USA), and they had resistances between 0.5 and 2.5 MΩ when filled with 3 M KCl. The oocyte was voltage-clamped at holding potentials (VH) between −60 and −100 mV. […] Currents were recorded to a PC via a digidata 1200 analog-to-digital converter (Axon Instuments, USA) using WinEDR v3.2.6 Software (Dr John Dempster, University of Strathclyde, UK).
(§4) Graphpad Prism 6 was used for data analysis, graph plotting and curve fitting. All plotted points are the mean ± SEM obtained from 4–20 oocytes.

α3β4(F255V) nAChR = molecular target: T2, α3β4(F255V) nAChR (Rattus norvegicus, UniProt P04757+P12392, F275V); test: Two-electrode voltage clamp of ACh currents, α3β4(F255V) nAChRs expressed in Xenopus oocytes; format: cell-based; conditions: for pIC50: α3β4(F255V), ACh 100 μM
T2 construct: expressed in transfected cells; host or cells: Xenopus laevis oocytes injected with cRNA
Procedure: (§5) cDNA clones of rat neuronal nAChR subunits (α3, α4, β2 and β4) and mouse muscle subunits (α1, β1, γ and δ) were from the Salk Institute for Biological Studies (Professor Stephen Heinemann). The human α7 and RIC-3 cDNAs were provided by Professor David Sattelle (University College London).
as §1, §2, §3, §4

α4β2(V253F) nAChR = molecular target: T3, α4β2(V253F) nAChR (Rattus norvegicus, UniProt P09483+P12390, V277F); test: Two-electrode voltage clamp of ACh currents, α4β2(V253F) nAChRs expressed in Xenopus oocytes; format: cell-based; conditions: for pIC50: α4β2(V253F), ACh 10 μM
T3 construct: expressed in transfected cells; host or cells: Xenopus laevis oocytes injected with cRNA
Procedure: as §5, §1, §2, §3, §4

α4β4 nAChR = molecular target: T4, α4β4 nAChR (Rattus norvegicus, UniProt P09483+P12392); test: cell-based; format: cell-based; conditions: for pIC50: IC50 (95% CI), ACh 10 μM
T4 construct: expressed in transfected cells; host or cells: Xenopus laevis oocytes injected with cRNA
Procedure: as §1, §2, §3, §4

[1] = test system: nAChRs expressed by PC12 cells; conditions: patch-clamp study of PC12 cells ref 14; cited from earlier work
nAChRs = test: Two-electrode voltage clamp of Xenopus oocytes expressing nAChRs, statements across tested subtypes; format: cell-based
Procedure: as §5, §1, §2, §3, §4

α3β2 nAChR = α3β2 nAChR (Rattus norvegicus, UniProt P04757+P12390); test: Two-electrode voltage clamp of ACh currents, α3β2 nAChRs expressed in Xenopus oocytes; conditions: for pIC50: IC50 (95% CI), ACh 30 μM
Procedure: as §1, §2, §3, §4

α4β2 nAChR = molecular target: T5, α4β2 nAChR (Rattus norvegicus, UniProt P09483+P12390); test: cell-based; format: cell-based; conditions: for pIC50: IC50 (95% CI), ACh 10 μM
T5 construct: expressed in transfected cells; host or cells: Xenopus laevis oocytes injected with cRNA
Procedure: as §5, §1, §2, §3, §4

α3β4 nAChR = molecular target: T6, α3β4 nAChR (Rattus norvegicus, UniProt P04757+P12392); test: cell-based; conditions: for pIC50: IC50 (95% CI)
T6 construct: expressed in transfected cells; host or cells: Xenopus laevis oocytes injected with cRNA
Procedure: as §1, §2, §3, §4

α1β1γδ nAChR = molecular target: T7, α1β1γδ nAChR (Mus musculus, UniProt P02716+P04756+P04760+P09690); test: cell-based; format: cell-based; conditions: for pIC50: IC50 (95% CI), ACh 10 μM
T7 construct: expressed in transfected cells; host or cells: Xenopus laevis oocytes injected with cRNA
Procedure: as §1, §2, §3, §4

[2] = VH −60 mV, late current (1 min), read-out: IC50 (95% CI), Late
[3] = VH −60 mV, peak current, read-out: IC50 (95% CI), Peak
[4] = VH −80 mV, late current (1 min), read-out: IC50 (95% CI), Late
[5] = VH −80 mV, peak current, read-out: IC50 (95% CI), Peak
[6] = VH −100 mV, late current (1 min), read-out: IC50 (95% CI), Late
[7] = VH −100 mV, peak current, read-out: IC50 (95% CI), Peak
[8] = α3β4, after co-application of 10 μM toxin, ACh 100 μM, −80 mV

T6 sequence (P04757 26-499): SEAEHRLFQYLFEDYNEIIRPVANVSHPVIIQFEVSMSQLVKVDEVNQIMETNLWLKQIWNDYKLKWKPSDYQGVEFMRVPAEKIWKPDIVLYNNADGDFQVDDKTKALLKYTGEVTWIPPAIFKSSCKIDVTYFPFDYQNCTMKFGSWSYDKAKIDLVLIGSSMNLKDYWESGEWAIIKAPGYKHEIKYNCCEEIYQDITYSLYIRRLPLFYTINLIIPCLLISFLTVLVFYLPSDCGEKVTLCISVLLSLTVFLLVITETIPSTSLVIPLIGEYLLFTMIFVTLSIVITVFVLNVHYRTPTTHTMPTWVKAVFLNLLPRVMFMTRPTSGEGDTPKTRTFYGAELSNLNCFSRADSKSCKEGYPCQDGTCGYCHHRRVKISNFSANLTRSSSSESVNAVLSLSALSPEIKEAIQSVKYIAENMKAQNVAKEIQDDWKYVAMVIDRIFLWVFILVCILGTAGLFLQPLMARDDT
T6 sequence (P12392 21-495): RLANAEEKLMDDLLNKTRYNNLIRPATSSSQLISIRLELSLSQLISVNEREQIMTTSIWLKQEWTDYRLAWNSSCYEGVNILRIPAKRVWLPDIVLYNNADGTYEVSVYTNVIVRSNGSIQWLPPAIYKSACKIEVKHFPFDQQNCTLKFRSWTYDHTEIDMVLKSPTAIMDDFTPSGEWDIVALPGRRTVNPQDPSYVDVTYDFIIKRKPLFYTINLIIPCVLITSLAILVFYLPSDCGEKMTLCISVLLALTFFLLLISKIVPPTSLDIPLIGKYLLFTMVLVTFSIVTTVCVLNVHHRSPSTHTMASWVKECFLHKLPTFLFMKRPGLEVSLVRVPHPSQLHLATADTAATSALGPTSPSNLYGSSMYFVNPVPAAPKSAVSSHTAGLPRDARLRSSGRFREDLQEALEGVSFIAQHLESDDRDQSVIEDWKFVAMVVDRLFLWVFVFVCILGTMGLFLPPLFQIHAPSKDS
Sequence of α3β2 nAChR (P04757 26-499): as the sequence (P04757 26-499) above
Sequence of α3β2 nAChR (P12390 25-500): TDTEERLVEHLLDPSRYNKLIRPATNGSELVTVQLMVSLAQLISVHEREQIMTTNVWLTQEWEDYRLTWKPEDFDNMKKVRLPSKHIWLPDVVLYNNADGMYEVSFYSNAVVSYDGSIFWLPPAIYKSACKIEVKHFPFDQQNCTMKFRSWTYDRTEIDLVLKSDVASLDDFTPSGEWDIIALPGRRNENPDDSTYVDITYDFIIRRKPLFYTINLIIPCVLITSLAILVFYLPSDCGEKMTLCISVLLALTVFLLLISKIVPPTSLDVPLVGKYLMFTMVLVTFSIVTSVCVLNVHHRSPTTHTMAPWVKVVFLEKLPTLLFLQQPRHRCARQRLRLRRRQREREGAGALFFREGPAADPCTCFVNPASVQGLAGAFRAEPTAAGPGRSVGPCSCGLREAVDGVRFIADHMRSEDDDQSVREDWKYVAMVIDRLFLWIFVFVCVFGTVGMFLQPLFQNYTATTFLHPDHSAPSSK
T2 sequence (P04757 26-499): as the sequence (P04757 26-499) above
T2 sequence (P12392 21-495 F275V): as the sequence (P12392 21-495) above, with F255V counted along it
T5 sequence (P09483 31-630): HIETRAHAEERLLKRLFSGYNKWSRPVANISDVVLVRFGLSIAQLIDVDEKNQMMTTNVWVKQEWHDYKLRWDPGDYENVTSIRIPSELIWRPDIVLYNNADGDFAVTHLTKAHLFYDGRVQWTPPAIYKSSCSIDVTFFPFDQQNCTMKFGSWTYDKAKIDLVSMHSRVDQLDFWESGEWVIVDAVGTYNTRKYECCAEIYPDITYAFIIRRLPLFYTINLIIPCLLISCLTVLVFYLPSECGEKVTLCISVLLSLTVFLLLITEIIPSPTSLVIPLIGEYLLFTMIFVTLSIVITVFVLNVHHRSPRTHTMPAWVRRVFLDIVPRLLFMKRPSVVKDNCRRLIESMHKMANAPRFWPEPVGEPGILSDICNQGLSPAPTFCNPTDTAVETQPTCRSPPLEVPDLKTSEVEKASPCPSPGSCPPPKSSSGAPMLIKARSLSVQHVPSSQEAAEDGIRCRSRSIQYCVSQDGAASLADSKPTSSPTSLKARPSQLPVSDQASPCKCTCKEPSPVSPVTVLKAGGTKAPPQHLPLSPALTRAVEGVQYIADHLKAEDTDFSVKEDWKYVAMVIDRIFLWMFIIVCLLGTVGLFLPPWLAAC
T5 sequence (P12390 25-500): as the sequence (P12390 25-500) above
T4 sequence (P09483 31-630): as the sequence (P09483 31-630) above
T4 sequence (P12392 21-495): as the sequence (P12392 21-495) above
T3 sequence (P09483 31-630, stated change not applied): as the sequence (P09483 31-630) above
T3 sequence (P12390 25-500 V277F): as the sequence (P12390 25-500) above, with V253F counted along it
T1 sequence (P36544 23-502): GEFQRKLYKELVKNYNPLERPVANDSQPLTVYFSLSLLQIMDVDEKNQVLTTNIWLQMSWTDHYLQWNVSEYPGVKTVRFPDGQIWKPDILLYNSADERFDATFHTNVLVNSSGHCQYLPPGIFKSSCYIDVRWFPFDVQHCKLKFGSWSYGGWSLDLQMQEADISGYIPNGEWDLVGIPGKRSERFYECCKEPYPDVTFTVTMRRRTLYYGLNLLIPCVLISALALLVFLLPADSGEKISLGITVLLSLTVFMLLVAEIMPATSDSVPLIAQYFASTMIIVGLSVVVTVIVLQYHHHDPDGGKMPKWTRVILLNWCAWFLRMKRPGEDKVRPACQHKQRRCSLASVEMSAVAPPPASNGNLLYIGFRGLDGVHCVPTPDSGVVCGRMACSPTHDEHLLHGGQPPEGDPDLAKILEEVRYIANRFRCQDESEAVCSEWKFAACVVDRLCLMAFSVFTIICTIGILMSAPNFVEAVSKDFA
T7 sequence (P04756 21-457): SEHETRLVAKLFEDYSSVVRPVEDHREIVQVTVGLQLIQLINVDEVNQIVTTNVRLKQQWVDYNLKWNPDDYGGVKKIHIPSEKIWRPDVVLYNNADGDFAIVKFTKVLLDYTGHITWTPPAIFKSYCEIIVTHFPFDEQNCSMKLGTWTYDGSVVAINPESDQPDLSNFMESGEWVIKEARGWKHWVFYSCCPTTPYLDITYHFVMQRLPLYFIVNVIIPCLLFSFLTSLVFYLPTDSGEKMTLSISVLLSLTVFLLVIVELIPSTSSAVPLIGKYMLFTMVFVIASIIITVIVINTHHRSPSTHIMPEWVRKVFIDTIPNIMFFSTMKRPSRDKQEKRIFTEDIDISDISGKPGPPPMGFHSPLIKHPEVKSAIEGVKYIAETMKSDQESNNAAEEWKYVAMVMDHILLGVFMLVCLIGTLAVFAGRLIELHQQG
T7 sequence (P09690 24-501): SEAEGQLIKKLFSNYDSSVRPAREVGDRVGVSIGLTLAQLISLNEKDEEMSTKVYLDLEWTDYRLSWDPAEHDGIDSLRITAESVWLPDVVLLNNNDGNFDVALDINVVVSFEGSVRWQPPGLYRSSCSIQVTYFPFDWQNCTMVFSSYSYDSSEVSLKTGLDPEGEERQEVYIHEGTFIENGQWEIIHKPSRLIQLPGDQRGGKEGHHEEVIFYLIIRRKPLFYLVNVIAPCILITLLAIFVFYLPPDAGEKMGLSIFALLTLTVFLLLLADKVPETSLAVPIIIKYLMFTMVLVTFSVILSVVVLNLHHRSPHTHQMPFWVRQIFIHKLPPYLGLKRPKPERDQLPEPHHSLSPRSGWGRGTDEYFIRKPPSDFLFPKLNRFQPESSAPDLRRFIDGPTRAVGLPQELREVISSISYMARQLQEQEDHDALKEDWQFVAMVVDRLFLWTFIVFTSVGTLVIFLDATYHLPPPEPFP
T7 sequence (P04760 23-519): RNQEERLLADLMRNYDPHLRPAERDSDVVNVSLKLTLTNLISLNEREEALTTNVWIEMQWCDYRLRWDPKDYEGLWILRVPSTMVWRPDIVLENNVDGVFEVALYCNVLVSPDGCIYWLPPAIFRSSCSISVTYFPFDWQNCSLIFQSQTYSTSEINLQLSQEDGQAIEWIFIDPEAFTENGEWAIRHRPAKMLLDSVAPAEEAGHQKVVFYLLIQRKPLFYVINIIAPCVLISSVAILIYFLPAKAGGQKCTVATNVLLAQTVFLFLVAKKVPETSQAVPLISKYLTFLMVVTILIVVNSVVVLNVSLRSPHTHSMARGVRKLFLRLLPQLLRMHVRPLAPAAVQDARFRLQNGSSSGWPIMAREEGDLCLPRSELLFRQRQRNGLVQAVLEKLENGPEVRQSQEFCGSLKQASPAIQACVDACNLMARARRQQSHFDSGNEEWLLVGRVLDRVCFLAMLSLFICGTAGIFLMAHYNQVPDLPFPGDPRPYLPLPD
T7 sequence (P02716 25-520): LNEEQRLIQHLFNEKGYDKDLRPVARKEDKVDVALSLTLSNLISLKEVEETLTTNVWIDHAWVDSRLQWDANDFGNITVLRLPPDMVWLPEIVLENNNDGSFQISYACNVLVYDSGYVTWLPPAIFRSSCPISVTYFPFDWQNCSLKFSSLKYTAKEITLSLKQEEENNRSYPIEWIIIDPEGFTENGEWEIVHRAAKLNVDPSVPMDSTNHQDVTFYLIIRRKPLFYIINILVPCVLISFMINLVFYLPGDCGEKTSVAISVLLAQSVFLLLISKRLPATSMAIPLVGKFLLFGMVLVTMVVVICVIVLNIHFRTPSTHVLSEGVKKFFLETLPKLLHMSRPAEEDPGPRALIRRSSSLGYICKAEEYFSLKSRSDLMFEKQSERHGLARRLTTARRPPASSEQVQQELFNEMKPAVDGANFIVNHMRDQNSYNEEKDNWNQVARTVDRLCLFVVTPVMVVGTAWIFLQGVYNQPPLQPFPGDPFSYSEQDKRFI

With `CCCC(=O)N[C@@H](Cc1ccc(O)cc1)C(=O)NCCCNCCCCNCCCN` [PhTX-343] the pIC50 (α7 nAChR; Late, α7, VH −60 mV, based on the area under the current trace (no stable late current)) was 5.18, the pIC50 (α7 nAChR; Late, α7, VH −80 mV, based on the area under the current trace (no stable late current)) was 5.30 and the pIC50 (α7 nAChR; Late, α7, VH −100 mV, based on the area under the current trace (no stable late current)) was 5.17. For the same compound, the pIC50 (α7 nAChR; Peak, α7, VH −60 mV, peak current) was 5.17, the pIC50 (α7 nAChR; Peak, α7, VH −80 mV, peak current) was 5.19 and the pIC50 (α7 nAChR; Peak, α7, VH −100 mV, peak current) was 5.06. The “voltage dependence of inhibition” value (α7 nAChR; homomeric α7, VH −60 to −100 mV) was “voltage-independent”, the “surmountability of peak current inhibition by increasing ACh concentrations” value (α7 nAChR; α7, 30 μM toxin, peak current, −80 mV) was “surmountable” and the reversibility of inhibition (α7 nAChR; α7, 30 μM toxin, washing in frog Ringer solution, −80 mV) was “reversible after 6 min”. The “times less sensitive than the most sensitive subtype” value (α7 nAChR; α7 vs α3β4 (for PhTX-12: α1β1γδ along with α3β4), late current IC50, −80 mV) was 422 times, the “increase in late current IC50 as compared to α3β4” value (α3β4(F255V) nAChR; α3β4(F255V) vs α3β4, late current, −80 mV) was “did not see the expected increase” and the “reduction in peak current IC50 as compared to α3β4” value (α3β4(F255V) nAChR; α3β4(F255V) vs α3β4, peak current, −80 mV) was 2.1 fold. For the same compound, the pIC50 (α3β4(F255V) nAChR; [2]) was 7.13, the pIC50 (α3β4(F255V) nAChR; [3]) was 6.51 and the pIC50 (α3β4(F255V) nAChR; [4]) was 7.92. For the same compound, the pIC50 (α3β4(F255V) nAChR; [5]) was 7.42, the pIC50 (α3β4(F255V) nAChR; [6]) was 8.30 and the pIC50 (α3β4(F255V) nAChR; [7]) was 7.77. The “reduction in late current IC50 as compared to α4β2” value (α4β2(V253F) nAChR; α4β2(V253F) vs α4β2, late current, −80 mV) was 2.6 fold, the “change in peak current IC50 as compared to α4β2” value (α4β2(V253F) nAChR; α4β2(V253F) vs α4β2, peak current, −80 mV) was “no significant change” and the pIC50 (α4β2(V253F) nAChR; [2]) was 7.20. For the same compound, the pIC50 (α4β2(V253F) nAChR; [3]) was 6.21, the pIC50 (α4β2(V253F) nAChR; [4]) was 6.92 and the pIC50 (α4β2(V253F) nAChR; [5]) was 6.12. It also gave a pIC50 (α4β2(V253F) nAChR; [6]) of 7.85, a pIC50 (α4β2(V253F) nAChR; [7]) of 6.96 and a pIC50 (α4β4 nAChR; Late, α4β4, VH −60 mV, late current (1 min)) of 6.77. The pIC50 (α4β4 nAChR; Late, α4β4, VH −80 mV, late current (1 min)) was 7.19, the pIC50 (α4β4 nAChR; Late, α4β4, VH −100 mV, late current (1 min)) was 7.57 and the pIC50 (α4β4 nAChR; Peak, α4β4, VH −60 mV, peak current) was 6.01. The pIC50 (α4β4 nAChR; Peak, α4β4, VH −80 mV, peak current) was 6.46, the pIC50 (α4β4 nAChR; Peak, α4β4, VH −100 mV, peak current) was 6.54 and the “recovery of peak current after six ACh applications (36 min)” value (“recovery of peak current” below) (α4β4 nAChR; α4β4, 10 μM toxin, −80 mV) was “very limited or absent”. For the same compound, the “decrease of peak current IC50 from −60 mV to VH −100 mV” value (shortened to “decrease of peak current IC50”) (α4β4 nAChR; α4β4, peak current) was 3.3 fold, the “times less sensitive than the most sensitive subtype” value (α4β4 nAChR; α4β4 vs α3β4 (for PhTX-12: α1β1γδ along with α3β4), late current IC50, −80 mV) was 5 times and the “late current IC50 lower than that for α4β2” value (α4β4 nAChR; α4β4 vs α4β2, late current) was ~5 fold. The “peak current IC50 lower than that for α4β2” value (α4β4 nAChR; α4β4 vs α4β2, peak current) was “roughly 3 fold”, the pIC50 [1] was 7.00 and the “effect on membrane current when applied alone” value (nAChRs; 100 μM applied alone, VH = −80 mV, oocytes expressing nAChRs) was “did not produce any effect on membrane current”. For the same compound, the “surmountability of late current inhibition by high ACh concentrations” value (nAChRs; all nAChRs including α7 and α1β1γδ, late current, −80 mV) was “not surmountable”, the “voltage dependence of inhibition” value (nAChRs; heteromeric nAChRs, VH −60 to −100 mV) was “strongly voltage-dependent” and the reversibility of inhibition (nAChRs; heteromeric neuronal nAChRs, 10 μM toxin, −80 mV) was “irreversible”. The pIC50 (α3β2 nAChR; Late, α3β2, VH −60 mV, late current (1 min)) was 5.80, the pIC50 (α3β2 nAChR; Late, α3β2, VH −80 mV, late current (1 min)) was 5.86 and the pIC50 (α3β2 nAChR; Late, α3β2, VH −100 mV, late current (1 min)) was 6.43. It also gave a pIC50 (α3β2 nAChR; Peak, α3β2, VH −60 mV, peak current) of 4.19, a pIC50 (α3β2 nAChR; Peak, α3β2, VH −80 mV, peak current) of 5.03 and a pIC50 (α3β2 nAChR; Peak, α3β2, VH −100 mV, peak current) of 5.44. For the same compound, the “recovery of peak current” value (α3β2 nAChR; α3β2, 10 μM toxin, −80 mV) was “very limited or absent”, the “decrease of peak current IC50” value (α3β2 nAChR; α3β2, peak current) was 18 fold and the “times less sensitive than the most sensitive subtype” value (α3β2 nAChR; α3β2 vs α3β4 (for PhTX-12: α1β1γδ along with α3β4), late current IC50, −80 mV) was 114 times. The pIC50 (α4β2 nAChR; Late, α4β2, VH −60 mV, late current (1 min)) was 6.34, the pIC50 (α4β2 nAChR; Late, α4β2, VH −80 mV, late current (1 min)) was 6.51 and the pIC50 (α4β2 nAChR; Late, α4β2, VH −100 mV, late current (1 min)) was 7.10. For the same compound, the pIC50 (α4β2 nAChR; Peak, α4β2, VH −60 mV, peak current) was 5.72, the pIC50 (α4β2 nAChR; Peak, α4β2, VH −80 mV, peak current) was 6.03 and the pIC50 (α4β2 nAChR; Peak, α4β2, VH −100 mV, peak current) was 6.85. For the same compound, the “recovery of peak current” value (α4β2 nAChR; α4β2, 10 μM toxin, −80 mV) was “very limited or absent”, the “decrease of peak current IC50” value (α4β2 nAChR; α4β2, peak current) was 14 fold and the “times less sensitive than the most sensitive subtype” value (α4β2 nAChR; α4β2 vs α3β4 (for PhTX-12: α1β1γδ along with α3β4), late current IC50, −80 mV) was 26 times. For the same compound, the pIC50 (α3β4 nAChR; Late, α3β4, VH −60 mV, late current (1 min), ACh 100 μM) was 7.06, the pIC50 (α3β4 nAChR; Late, α3β4, VH −80 mV, late current (1 min), ACh 100 μM) was 7.92 and the pIC50 (α3β4 nAChR; Late, α3β4, VH −100 mV, late current (1 min), ACh 100 μM) was 8.11. For the same compound, the pIC50 (α3β4 nAChR; Peak, α3β4, VH −60 mV, peak current, ACh 100 μM) was 6.54, the pIC50 (α3β4 nAChR; Peak, α3β4, VH −80 mV, peak current, ACh 100 μM) was 7.10 and the pIC50 (α3β4 nAChR; Peak, α3β4, VH −100 mV, peak current, ACh 100 μM) was 7.11. The “recovery of late current after six ACh applications (36 min)” value (α3β4 nAChR; [8]) was 69 % of control, the “recovery of peak current” value (α3β4 nAChR; [8]) was 82 % of control and the “decrease of peak current IC50” value (α3β4 nAChR; α3β4, peak current) was 3.8 fold. The “more potent than PhTX-12, peak current inhibition” value (α3β4 nAChR; α3β4, peak current, −80 mV) was 33 fold, the “potency higher as compared to α3β2, peak current” value (α3β4 nAChR; α3β4 vs α3β2, peak current, −80 mV) was 115 fold and the pIC50 (α1β1γδ nAChR; Late, α1β1γδ, VH −60 mV, late current (1 min)) was 4.74. It also gave a pIC50 (α1β1γδ nAChR; Late, α1β1γδ, VH −80 mV, late current (1 min)) of 4.92, a pIC50 (α1β1γδ nAChR; Late, α1β1γδ, VH −100 mV, late current (1 min)) of 5.61 and a pIC50 (α1β1γδ nAChR; Peak, α1β1γδ, VH −60 mV, peak current) of 4.57. The pIC50 (α1β1γδ nAChR; Peak, α1β1γδ, VH −80 mV, peak current) was 4.82, the pIC50 (α1β1γδ nAChR; Peak, α1β1γδ, VH −100 mV, peak current) was 5.49 and the “times less sensitive than the most sensitive subtype” value (α1β1γδ nAChR; α1β1γδ vs α3β4, late current IC50, −80 mV) was 992 times and 1000 times. The “surmountability of peak current inhibition by increasing ACh concentrations” value (α1β1γδ nAChR; α1β1γδ, 10 μM toxin, peak current, −80 mV) was “surmountable” and the reversibility of inhibition (α1β1γδ nAChR; α1β1γδ, 100 μM toxin, washing in frog Ringer solution, −80 mV) was “reversible after 6 min”.
